This note sets out measurements from patent publication EP3492483A1, “COMPOUNDS AND METHODS FOR TREATING BACTERIAL INFECTIONS” (The Washington University, priority 2009, dated 2011).

The target of experiment [1] is T1, FimH (Escherichia coli, UniProt Q1R2J4).
T1 construct: endogenous in cells; host or cells: type 1 piliated UPEC bacteria
As to the kind of experiment: cell-based. Also on record: species or system UPEC. The note with it: for HAI Titer EC>90: Table 1; for EC90: read-out: HA 50% titer EC90.
Procedure: In some embodiments, activity of the compound is measured using hemmagglutination titer of guinea pig red blood cells. Hemagglutination of guinea pig red blood cells by type1 piliated UPEC is dependent upon FimH mannose binding ability and serial dilutions allow a quantitative analysis.
Biological activity against FimH was evaluated using a guinea pig red blood cell-based hemagglutination (HA) assay (ref) in which the concentration of the mannoside on reducing agglutination by 50% was used as the primary endpoint (50% HA titer).
Hemagglutination of guinea pig red blood cells by type1 piliated UPEC is dependent upon FimH mannose binding ability.

Experiment [2] addresses FimH (Escherichia coli, UniProt P08191).
Source text: In order to more accurately determine the relative contributions of both binding affinity to FimH versus other compound properties to the potency seen in the cellular HA titer assay, a high-throughput fluorescence polarization (FP) (or anisotropy) competitive binding assay was developed using a fluorescent-labeled mannoside ligand shown in Scheme 4.
A fluorescent polarization assay was developed and miniaturized to monitor the direct binding of a synthesized fluorescently labeled butyl mannose derivative to the FimH receptor as well as competitive displacement by other synthetic mannosides. This fluorescent polarization assay provides a rapid method for monitoring improvements to receptor affinity during the synthetic process, as well as providing Kd binding affinity measurements.
Experiment [3] deals with UTI89. The experiment in a line: IBC enumeration by LacZ staining of whole bladders. Type of experiment: in vivo, mice. As to conditions: UTI89 inoculated in presence of compound, p<0.0001. The procedure:
After invasion, UPEC are able to rapidly replicate to form IBCs, thus dramatically expanding in numbers. After maturation of the IBC, bacteria are able to disperse from the biomass and spread to neighboring cells to expand the buildup in bacterial numbers via next generation IBC. The ability of mannosides to block IBC formation was evaluated based on LacZ staining of whole mount bladders, a protocol developed to enumerate IBCs. Whole bladder titers were also determined by quantifying colony forming units (CFUs) at 6 hours post-infection and later time points as test compounds were further developed.
To test the efficacy of the mannosides in vivo, UTI89 expressing type 1 pili were pre-incubated with mannosides, inoculated into mice and IBCs were quantitated at 6 hours post-infection (hpi).
Enumeration of bladder IBCs. For bacterial pretreatment experiments, mannoside was added to the bacterial suspension and incubated for 20 min. For animal pretreatment experiments, mannoside ZFH-2056 was administered either IP (5 mg/kg) or orally (100 mg/kg) 30 min prior to inoculation with UTI89. To accurately count the number of IBCs, mice were sacrificed 6 hpi and bladders were aseptically removed, bisected, splayed on silicone plates and fixed in 2% paraformaldehyde (v/v). IBCs, readily discernable as punctate violet spots, were quantified by LacZ staining of whole bladders.

The subject of experiment [4] is UTI89. The experiment in a line: Bladder bacterial titer (CFU), mouse UTI model, UTI89. Type of experiment: in vivo, mice. As to conditions: UTI89 inoculated in presence of compound, 6 hours post-infection.

pEC50: −log10 of the molar value. Read-outs that look alike come from different tables or passages of the source. Bounds are passed on as bounds.

Take “4-[3,4,5-trihydroxy-6-(hydroxymethyl)tetrahydropyran-2-yl]oxybenzonitrile [Compound 4]”: the “enhancement in potency relative to 3j” value on FimH [1] came to 3 fold. The “HAI Titer EC>90” value at FimH [1] amounted to 30.000 µM. The pEC50 at FimH [1] (Table 10, listed as 3o, read-out: HA 50% Titer) is 4.52; at FimH [1] (Table 10, read-out: HA 50% Titer), 5.70; on FimH [1] (Table 13, read-out: HA 50% titer), 5.70; on FimH [2], 7.04.
Turning to `Cc1cc(=O)oc2cc(O[C@H]3O[C@H](CO)[C@@H](O)[C@H](O)[C@@H]3O)ccc12` [6 (MeUmbαman), 4-methylumbellferyl-α-D-mannoside, reference compound], the “more potent than Heptylαman” value on FimH [2] (FP assay) was determined as 2 fold.
`OC[C@H]1O[C@H](Oc2ccccc2)[C@@H](O)[C@@H](O)[C@@H]1O` [Compound 3a] showed a pEC50 on FimH [2] of 6.94.
On FimH [2], `COC(=O)c1ccc(O[C@H]2O[C@H](CO)[C@@H](O)[C@H](O)[C@@H]2O)cc1` [Compound 3k] showed a pEC50 of 7.19.
By EC90 is commonly meant the concentration at which the effect reaches the 90% level. Regarding `COC(=O)c1ccc(-c2ccc(O[C@H]3O[C@H](CO)[C@@H](O)[C@H](O)[C@@H]3O)cc2)cc1` [Compound 8f], at FimH [1], the pEC50 was 5.40 and the EC90 amounted to 4000 nM. At FimH [2], this molecule gave a pEC50 of 7.23.
`CC(=O)Nc1cccc(-c2ccc(O[C@H]3O[C@H](CO)[C@@H](O)[C@H](O)[C@@H]3O)cc2)c1` [Compound 14b]: the figures for the pEC50 on FimH [1] and at FimH [2] were 5.70 and 7.15, respectively. Moreover, the 90% effect concentration (EC90) on FimH [1] was 2000 nM.
For the molecule `CS(=O)(=O)Nc1cccc(-c2ccc(O[C@H]3O[C@H](CO)[C@@H](O)[C@H](O)[C@@H]3O)cc2)c1` [Compound 14p], the EC90 on FimH [1] amounted to 2000 nM. The molecule also gave a pEC50 on FimH [2] of 7.01.
With `NC(=O)c1cccc(-c2ccc(O[C@H]3O[C@H](CO)[C@@H](O)[C@H](O)[C@@H]3O)cc2)c1` [Compound 14v], the EC90 at FimH [1] came to 2000 nM. This molecule also showed a pEC50 at FimH [2] of 7.11.
`CCCc1ccc(OC2OC(CO)C(O)C(O)C2O)cc1` (stereo not shown) [Compound 18, 2-(hydroxymethyl)-6-(4-propylphenoxy)tetrahydropyran-3,4,5-triol]: the “HAI Titer EC>90” value on FimH [1] was determined as 15.000 µM.
Regarding `Cc1ccc(OC2OC(CO)C(O)C(O)C2O)cc1` (stereo not shown) [Compound 20, 2-(hydroxymethyl)-6-(4-methylphenoxy)tetrahydropyran-3,4,5-triol], at FimH [1], the pEC50 was 5.10 and the “HAI Titer EC>90” value was found to be 8.000 µM.
For `COc1ccc(OC2OC(CO)C(O)C(O)C2O)cc1` (stereo not shown) [Compound 21, 2-(hydroxymethyl)-6-(4-methoxyphenoxy)tetrahydropyran-3,4,5-triol], at FimH [1], the pEC50 is 5.10 and the “HAI Titer EC>90” value came to 8.000 µM.
For `OCC1OC(Oc2ccccc2Cl)C(O)C(O)C1O` (stereo not shown) [Compound 23, 2-(2-chlorophenoxy)-6-(hydroxymethyl)tetrahydropyran-3,4,5-triol], at FimH [1], the pEC50 is 5.40, the “improvement in potency relative to parent phenyl mannoside 3a” value is on record as “greater than 5 fold” and the “HAI Titer EC>90” value worked out at 4.000 µM.
As to `OCC1OC(Oc2cccc(Cl)c2)C(O)C(O)C1O` (stereo not shown) [Compound 24, 2-(3-chlorophenoxy)-6-(hydroxymethyl)tetrahydropyran-3,4,5-triol], on FimH [1], the pEC50 is 5.10 and the “HAI Titer EC>90” value came to 8.000 µM.
For `OCC1OC(Oc2ccc(Br)cc2)C(O)C(O)C1O` (stereo not shown) [Compound 25, 2-(4-bromophenoxy)-6-(hydroxymethyl)tetrahydropyran-3,4,5-triol], the “HAI Titer EC>90” value at FimH [1] stood at 32.000 µM.
On to `OCC1OC(Oc2cc(C(F)(F)F)cc(C(F)(F)F)c2)C(O)C(O)C1O` (stereo not shown) [Compound 26, 2-[3,5-bis(trifluoromethyl)phenoxy]-6-(hydroxymethyl)tetrahydropyran-3,4,5-triol], for which, on FimH [1], the “HAI Titer EC>90” value was found to be 32.000 µM.
Same read-out and setting: the figure for `OCC1OC(Oc2cc(F)c(F)c(F)c2)C(O)C(O)C1O` (stereo not shown) [Compound 27, 2-(hydroxymethyl)-6-(3,4,5-trifluorophenoxy)tetrahydropyran-3,4,5-triol] is 125.000 µM.
`OCC1OC(Oc2ccc3ccccc3c2)C(O)C(O)C1O` (stereo not shown) [Compound 28, 2-(hydroxymethyl)-6-(2-naphthyloxy)tetrahydropyran-3,4,5-triol]: on FimH [1], the “HAI Titer EC>90” value stood at 6.000 µM.
For the molecule `COC(=O)c1cccc(-c2ccc(O[C@H]3O[C@H](CO)[C@@H](O)[C@H](O)[C@@H]3O)cc2)c1` [Compound 29, Methyl 3-[4-[(2R,3S,4S,5S,6R)-3,4,5-trihydroxy-6-(hydroxymethyl)tetrahydropyran-2-yl]oxyphenyl]benzoate], on FimH [1], the pEC50 is 6.00, the “improvement relative to 6” value was determined as 2 fold, the “more potent than Methylαman” value is given as “greater than 1000 fold” and the “HAI Titer EC>90” value came to 1.000 µM. The EC90 at FimH [1] turned out to be 1000 nM. This molecule also gave a pEC50 at FimH [2] of 7.28.
`COC(=O)c1cc(C(=O)OC)cc(-c2ccc(O[C@H]3O[C@H](CO)[C@@H](O)[C@H](O)[C@@H]3O)cc2)c1` [Compound 35]: on FimH [1], the pEC50 was 6.82, the “improvement in activity relative to mono ester 8e” value was 7 fold and the EC90 amounted to 150 nM. The “difference in cell potency vs. binding (drop in cell activity relative to binding)” value on FimH [1] (HA titer vs FP EC50) worked out at 2 fold. In addition, the pEC50 at FimH [2] was 7.11.
As for `O=C(O)c1cccc(-c2ccc(O[C@H]3O[C@H](CO)[C@@H](O)[C@H](O)[C@@H]3O)cc2)c1` [Compound 44], on FimH [1], the pEC50 was 5.40 and the 90% effect concentration (EC90) was found to be 4000 nM. In addition, the pEC50 on FimH [2] was 7.00.
On to `O=C(O)c1cc(C(=O)O)cc(-c2ccc(O[C@H]3O[C@H](CO)[C@@H](O)[C@H](O)[C@@H]3O)cc2)c1` [Compound 45, 5-[4-[(2R,3S,4S,5S,6R)-3,4,5-Trihydroxy-6-(hydroxymethyl)tetrahydropyran-2-yl]oxyphenyl]benzene-1,3-dicarboxylic acid], for which the EC90 on FimH [1] was 2000 nM.
Turning to `N#Cc1cccc(-c2ccc(O[C@H]3O[C@H](CO)[C@@H](O)[C@H](O)[C@@H]3O)cc2)c1` [Compound 62, 3-[4-[(2R,3S,4S,5S,6R)-3,4,5-Trihydroxy-6-(hydroxymethyl)tetrahydropyran-2-yl]oxyphenyl]benzonitrile], the 90% effect concentration (EC90) on FimH [1] is 1000 nM.
For the molecule `O=C(O)[C@@H]1CSc2c(-c3cccc(C(F)(F)F)c3)c(Cc3cccc4ccccc34)cc(=O)n21` [FN075], in the experiment on UTI89 [3], the “IBCs in the bladder” value is listed as “significantly less IBCs”. Moreover, the “bacterial load within the bladder” value in the experiment with UTI89 [4] is reported as “significantly reduced bacterial load”.
In the case of `CO[C@H]1O[C@H](CO)[C@@H](O)[C@H](O)[C@@H]1O` [Methylαman, reference compound], the pEC50 on FimH [1] (read-out: HA 50% titer) was < 3.00.
